Results as given in PMC6950057, “Toxicity, Pharmacokinetics, and Gut Microbiome of Oral Administration of Sesterterpene MHO7 Derived from a Marine Fungus” (Marine Drugs, 2019).

Test system: gut microbiota
Assay: Gut (cecal) microbiota analysis by 16S rRNA sequencing
Assay type: in vivo, mice
Details: for amount of OTUs vs control: p < 0.001; for gut community richness (Sobs index) vs control: p < 0.01
Method: Fresh cecal samples from 24 (n = 6 per group) mice were collected at 1, 8 and 30 h after oral administration of 500 mg·kg^−1 MHO7 meanwhile control group was collected at 8 h after oral the same volume corn oil, respectively. All of the cecal samples were collected in sterile environments and containers, snap-frozen in liquid nitrogen, and then stored at −80 °C.
Microbial DNA was extracted from 24 cecal samples using the E.Z.N.A.® soil DNA Kit (Omega Bio-tek, Norcross, GA, USA) according to manufacturer’s protocols. The final DNA concentration and purification were determined by NanoDrop 2000 UV-vis spectrophotometer (Thermo Scientific, Wilmington, DE, USA), and DNA quality was checked by 1% agarose gel electrophoresis. The V3-V4 hypervariable regions of the bacteria 16S rRNA gene were amplified with primers 338F (5’- […]-3’) and 806R (5’-[…]-3’) by thermocycler PCR system (GeneAmp 9700, ABI, Foster City, CA, USA). The PCR reactions were conducted using the following program: 3 min of denaturation at 95 °C; 27 cycles of 30 s at 95 °C, 30 s for annealing at 55 °C, and 45 s for elongation at 72 °C; and a final extension at 72 °C for 10 min. PCR reactions were performed in triplicate 20 μL mixture containing 4 μL of 5 × FastPfu Buffer, 2 μL of 2.5 mM·L^−1 dNTPs, 0.8 μL of each primer (5 μM·L^−1), 0.4 μL of FastPfu Polymerase, and 10 ng of template DNA. The resulted PCR products were extracted from a 2% agarose gel and further purified using the AxyPrep DNA Gel Extraction Kit (Axygen Biosciences, Union City, CA, USA) and quantified using QuantiFluor ™ -ST (Promega, Madison, […], USA) according to the manufacturer’s protocol.
Purified amplicons were pooled in equimolar and paired-end sequenced (2 × 300) on an Illumina MiSeq platform (Illumina, San Diego, CA, USA) according to the standard protocols by Majorbio Bio-Pharm Technology Co. Ltd. (Shanghai, China).
Raw fastq files were quality-filtered by Trimmomatic and merged by FLASH according to the following criteria: (i) The reads were truncated at any site receiving an average quality score < 20 over a 50 bp sliding window. (ii) Sequences whose overlap was longer than 10 bp were merged according to their overlap with mismatch no more than 2 bp. (iii) Sequences of each sample were separated according to barcodes (exactly matching) and Primers (allowing 2 nucleotide mismatching), and reads containing ambiguous bases were removed. Operational taxonomic units (OTUs) were clustered using UPARSE (version 7.1, http://drive5.com/uparse/) at a 97% similarity level with a novel “greedy” algorithm that performs chimera filtering and OTU clustering simultaneously. The taxonomy of each 16S rRNA gene sequence was analyzed by RDP Classifier algorithm (http://rdp.cme.msu.edu/) against the Silva (SSU123) 16S rRNA database using confidence threshold of 70%.

[1] = MHO7-1h group, cecal, oral 500 mg·kg^−1
[2] = MHO7-8h group, cecal, oral 500 mg·kg^−1
[3] = MHO7-30h group, cecal, oral 500 mg·kg^−1

CC(C)=C/C=C/[C@H](C)[C@H]1CC[C@]2(C)C[C@@H]3C(C)=CC(=O)[C@H]3/C(C=O)=C\C[C@@H]12 [MHO7, 6-epi-ophiobolin G]
richness, diversity, OTU number of gut microbiome vs control (MHO7-1 h group): no significant difference | Relative abundance, class Bacilli [1]: 10.08±7.69% | Relative abundance, class Clostridia [1]: 38.58 ± 11.1% | Relative abundance, class Mollicutes [1]: 0.46±0.25% | Relative abundance, class Verrucomicrobiae [1]: 0.0019±0.002% | Relative abundance, family Bacteroidales_S24-7_group [1]: 33.99±6.67% | Relative abundance, family Lachnospiraceae [1]: 27.23±10.42% | Relative abundance, family Lactobacillaceae [1]: 10.05±7.69% | Relative abundance, family Rikenellaceae [1]: 7.09±0.86% | Relative abundance, family Ruminococcaceae [1]: 10.04±1.97% | Relative abundance, family Verrucomicrobiaceae [1]: 0.0019±0.0021% | Relative abundance, genus Anaeroplasma [1]: 0.12±0.11% | Relative abundance, genus Coprococcus_1 [1]: 0.19±0.10% | Relative abundance, genus Family_XIII_AD3011_group [1]: 0.067±0.041% | Relative abundance, genus Lachnoclostridium [1]: 0.51±0.21% | Relative abundance, genus Lactobacillus [1]: 10.05±7.69% | Relative abundance, genus Papillibacter [1]: 0.0062±0.0066% | Relative abundance, genus Peptococcus [1]: 0.010±0.0061% | Relative abundance, genus Prevotellaceae_NK3B31_group [1]: 0.46±0.31% | Relative abundance, genus Prevotellaceae_UCG-001 [1]: 0.78±0.51% | Relative abundance, genus Rikenellaceae_RC9_gut_group [1]: 2.82±0.76% | Relative abundance, genus Ruminiclostridium [1]: 0.78±0.59% | Relative abundance, genus Ruminiclostridium_5 [1]: 0.34±0.14% | Relative abundance, genus Ruminiclostridium_9 [1]: 0.76±0.29% | Relative abundance, genus Ruminococcaceae_NK4A214_group [1]: 0.076±0.024% | Relative abundance, genus Ruminococcaceae_UCG-009 [1]: 0.066±0.050% | Relative abundance, genus Ruminococcaceae_UCG-010 [1]: 0.12±0.046% | Relative abundance, genus Ruminococcaceae_UCG-014 [1]: 2.73±0.93% | Relative abundance, genus Ruminococcus_1 [1]: 1.53±1.04% | Relative abundance, genus Streptococcus [1]: 0.023±0.0050% | Relative abundance, genus [Eubacterium]_coprostanoligenes_group [1]: 0.13±0.12% | Relative abundance, genus [Eubacterium]_ventriosum_group [1]: 0.13±0.089% | Relative abundance, genus g__norank_f__Bacteroidales_S24-7_group [1]: 33.99±6.67% | Relative abundance, genus g__norank_f__Christensenellaceae [1]: 0.034±0.014% | Relative abundance, genus g__norank_f__Lachnospiraceae [1]: 6.456±2.68% | Relative abundance, genus g__norank_f__Ruminococcaceae [1]: 0.31±0.22% | Relative abundance, genus norank_o__Mollicutes_RF9 [1]: 0.34±0.17% | Relative abundance, order Anaeroplasmatales [1]: 0.12±0.11% | Relative abundance, order Bacillales [1]: 0.0000% | Relative abundance, order Clostridiales [1]: 38.54±11.15% | Relative abundance, order Lactobacillales [1]: 10.10±7.65% | Relative abundance, order Mollicutes_RF9 [1]: 0.33±0.16% | Relative abundance, order Verrucomicrobiales [1]: 0.0022±0.0027% | Relative abundance, phylum Deferribacteres [1]: 0.14±0.12% | Relative abundance, phylum Proteobacteria [1]: 0.18±0.045% | Relative abundance, phylum Saccharibacteria [1]: 0.47±0.28% | Relative abundance, phylum Tenericutes [1]: 0.46±0.25% | gut community diversity (Shannon index) vs control (MHO7-8 h group, OTU level, p < 0.05): decreased significantly | amount of OTUs vs control (MHO7-8 h group): remarkable reduction | gut community richness (Sobs index) vs control (MHO7-8 h group): remarkable reduction | Relative abundance, class Bacilli [2]: 11.49±12.09% | Relative abundance, class Clostridia [2]: 28.98 ± 20.11% | Relative abundance, class Mollicutes [2]: 0.0075±0.0048% | Relative abundance, class Verrucomicrobiae [2]: 0.80±1.18% | Relative abundance, family Bacteroidales_S24-7_group [2]: 33.65±5.47% | Relative abundance, family Lachnospiraceae [2]: 21.66±15.88% | Relative abundance, family Lactobacillaceae [2]: 11.34±12.11% | Relative abundance, family Rikenellaceae [2]: 3.66±2.13% | Relative abundance, family Ruminococcaceae [2]: 6.20±4.57% | Relative abundance, family Verrucomicrobiaceae [2]: 0.80±1.18% | Relative abundance, genus Coprococcus_1 [2]: 0.21±0.17% | Relative abundance, genus Family_XIII_AD3011_group [2]: 0.0069±0.0077% | Relative abundance, genus Lachnoclostridium [2]: 0.81±0.61% | Relative abundance, genus Lactobacillus [2]: 11.34±12.11% | Relative abundance, genus Papillibacter [2]: 0.0025±0.0061% | Relative abundance, genus Peptococcus [2]: 0.0050±0.010% | Relative abundance, genus Prevotellaceae_NK3B31_group [2]: 2.54±2.44% | Relative abundance, genus Prevotellaceae_UCG-001 [2]: 4.09±3.41% | Relative abundance, genus Rikenellaceae_RC9_gut_group [2]: 0.088±0.089% | Relative abundance, genus Ruminiclostridium [2]: 0.36±0.31% | Relative abundance, genus Ruminiclostridium_5 [2]: 0.21±0.21% | Relative abundance, genus Ruminiclostridium_9 [2]: 0.60±0.59% | Relative abundance, genus Ruminococcaceae_NK4A214_group [2]: 0.023±0.021% | Relative abundance, genus Ruminococcaceae_UCG-009 [2]: 0.063±0.072% | Relative abundance, genus Ruminococcaceae_UCG-010 [2]: 0.036±0.042% | Relative abundance, genus Ruminococcaceae_UCG-014 [2]: 0.19±0.25% | Relative abundance, genus Ruminococcus_1 [2]: 0.38±0.32% | Relative abundance, genus Staphylococcus [2]: 0.066±0.060% | Relative abundance, genus Streptococcus [2]: 0.029±0.016% | Relative abundance, genus Sutterella [2]: 0.0069±0.010% | Relative abundance, genus [Eubacterium]_coprostanoligenes_group [2]: 0.22±0.23% | Relative abundance, genus [Eubacterium]_ventriosum_group [2]: 0.012±0.020% | Relative abundance, genus g__norank_f__Bacteroidales_S24-7_group [2]: 33.65±5.47% | Relative abundance, genus g__norank_f__Christensenellaceae [2]: 0.011±0.0079% | Relative abundance, genus g__norank_f__Lachnospiraceae [2]: 7.54±4.66% | Relative abundance, genus g__norank_f__Ruminococcaceae [2]: 0.31±0.26% | Relative abundance, genus norank_o__Mollicutes_RF9 [2]: 0.0075±0.0047% | Relative abundance, order Anaeroplasmatales [2]: 0.00028±0.00068% | Relative abundance, order Bacillales [2]: 0.071±0.067% | Relative abundance, order Clostridiales [2]: 28.89±20.03% | Relative abundance, order Lactobacillales [2]: 11.34±12.02% | Relative abundance, order Mollicutes_RF9 [2]: 0.0057±0.0040% | Relative abundance, order Verrucomicrobiales [2]: 0.78±1.15% | Relative abundance, phylum Deferribacteres [2]: 0.0044±0.0050% | Relative abundance, phylum Proteobacteria [2]: 2.05±1.47% | Relative abundance, phylum Saccharibacteria [2]: 0.35±0.61% | Relative abundance, phylum Tenericutes [2]: 0.0075±0.0047% | amount of OTUs vs control (MHO7-30 h group): remarkable reduction | gut community richness (Sobs index) vs control (MHO7-30 h group): remarkable reduction | Relative abundance, class Bacilli [3]: 3.25±3.05% | Relative abundance, class Clostridia [3]: 47.82 ± 20.66% | Relative abundance, class Mollicutes [3]: 0.0012±0.0031% | Relative abundance, class Verrucomicrobiae [3]: 2.51±3.67% | Relative abundance, family Bacteroidales_S24-7_group [3]: 19.34±6.97% | Relative abundance, family Lachnospiraceae [3]: 42.58±19.32% | Relative abundance, family Lactobacillaceae [3]: 3.21±2.99% | Relative abundance, family Rikenellaceae [3]: 3.19±2.16% | Relative abundance, family Ruminococcaceae [3]: 4.13±1.97% | Relative abundance, family Verrucomicrobiaceae [3]: 2.51±3.67% | Relative abundance, genus Coprococcus_1 [3]: 0.11±0.068% | Relative abundance, genus Family_XIII_AD3011_group [3]: 0.021±0.014% | Relative abundance, genus Lachnoclostridium [3]: 2.42±2.02% | Relative abundance, genus Lactobacillus [3]: 3.21±2.99% | Relative abundance, genus Papillibacter [3]: 0.00062±0.0015% | Relative abundance, genus Peptococcus [3]: 0.0050±0.0056% | Relative abundance, genus Prevotellaceae_NK3B31_group [3]: 0.14±0.19% | Relative abundance, genus Prevotellaceae_UCG-001 [3]: 1.07±1.13% | Relative abundance, genus Rikenellaceae_RC9_gut_group [3]: 0.042±0.084% | Relative abundance, genus Ruminiclostridium [3]: 0.079±0.076% | Relative abundance, genus Ruminiclostridium_5 [3]: 0.27±0.23% | Relative abundance, genus Ruminiclostridium_9 [3]: 0.41±0.20% | Relative abundance, genus Ruminococcaceae_NK4A214_group [3]: 0.020±0.023% | Relative abundance, genus Ruminococcaceae_UCG-009 [3]: 0.012±0.015% | Relative abundance, genus Ruminococcaceae_UCG-010 [3]: 0.0062±0.0061% | Relative abundance, genus Ruminococcaceae_UCG-014 [3]: 0.022±0.030% | Relative abundance, genus Ruminococcus_1 [3]: 0.071±0.15% | Relative abundance, genus Streptococcus [3]: 0.0025±0.0031% | Relative abundance, genus Sutterella [3]: 0.090±0.090% | Relative abundance, genus [Eubacterium]_coprostanoligenes_group [3]: 0.28±0.50% | Relative abundance, genus [Eubacterium]_ventriosum_group [3]: 0.022±0.041% | Relative abundance, genus g__norank_f__Bacteroidales_S24-7_group [3]: 19.34±6.97% | Relative abundance, genus g__norank_f__Christensenellaceae [3]: 0.0069±0.0087% | Relative abundance, genus g__norank_f__Lachnospiraceae [3]: 19.81±11.07% | Relative abundance, genus g__norank_f__Ruminococcaceae [3]: 0.16±0.13% | Relative abundance, genus norank_o__Mollicutes_RF9 [3]: 0.0012±0.0031% | Relative abundance, order Anaeroplasmatales [3]: 0.00000% | Relative abundance, order Bacillales [3]: 0.00034±0.00084% | Relative abundance, order Clostridiales [3]: 47.86±20.61% | Relative abundance, order Lactobacillales [3]: 3.26±3.04% | Relative abundance, order Mollicutes_RF9 [3]: 0.0014±0.0025% | Relative abundance, order Verrucomicrobiales [3]: 2.52±3.65% | Relative abundance, phylum Deferribacteres [3]: 0.25±0.23% | Relative abundance, phylum Proteobacteria [3]: 1.34±1.58% | Relative abundance, phylum Saccharibacteria [3]: 0.0069±0.0055% | Relative abundance, phylum Tenericutes [3]: 0.0013±0.0031% | abundance of dominant phyla Firmicutes and Bacteroidetes (at 1, 8 or 30 h after oral administration): no significant differences
